Values of other authors, collected in paper PMC11859340, “The Therapeutic Potential of Spirooxindoles in Cancer: A Focus on p53–MDM2 Modulation” (Pharmaceuticals, 2025).
Like-named read-outs stand apart in the source and are kept apart here.

Experiments:
MCF7 = system: MCF7; parameters: method as in PMID 28987608; details: MTT; read-out: IC50 against MCF7
[1] = system: HEK 293T (embryonic kidney non-cancer); parameters: method as in PMID 28987608; details: MTT, read-out: IC50 against HEK 293T
HCT116 (p53^−/−) = system: HCT116 (p53^−/−); parameters: method as in PMID 28987608; details: MTT; read-out: IC50 against HCT116 (p53^−/−)
HCT116 (p53^+/+) = system: HCT116 (p53^+/+); parameters: method as in PMID 28987608; details: MTT; read-out: IC50 against HCT116 (p53^+/+)
MDA-MB-231 (breast) [2] = system: MDA-MB-231 (breast); parameters: method as in PMID 28987608; details: MTT; read-out: IC50 against MDA-MB-231
[3] = system: p53-wild-type MCF7 (breast cancer) cell line; parameters: method as in PMID 33725632
HeLa (cervical) [4] = system: HeLa (cervical); parameters: method as in doi:10.31788/RJC.2023.1638506; details: MTT; read-out: IC50 against HeLa
MCF7 (breast) [5] = system: MCF7 (breast); parameters: method as in doi:10.31788/RJC.2023.1638506; details: MTT; read-out: IC50 against MCF7
[6] = system: MCF7 (breast) cancer cell line; parameters: method as in doi:10.1016/j.molstruc.2023.137026
MCF7 (breast) [7] = system: MCF7 (breast); parameters: method as in PMID 26256638; details: MTT; read-out: IC50 against MCF7
MDA-MB-231 = system: MDA-MB-231; parameters: method as in doi:10.3390/separations10040225; details: MTT; read-out: IC50 against MDA-MB-231
PC3 = system: PC3; parameters: method as in doi:10.3390/separations10040225; details: MTT; read-out: IC50 against PC3
PC-3 (prostate) = system: PC-3 (prostate); parameters: method as in PMID 30802707; details: MTT; read-out: IC50 against PC-3
HCT116 (colon) [8] = system: HCT116 (colon); parameters: method as in PMID 30802707; details: MTT; read-out: IC50 against HCT116
HepG2 (liver) [9] = system: HepG2 (liver); parameters: method as in PMID 30802707; details: MTT; read-out: IC50 against HepG2
HepG2 (liver) [10] = system: HepG2 (liver); parameters: method as in PMID 30508794; details: MTT; read-out: IC50 against HepG2
HCT116 (colon) [11] = system: HCT116 (colon); parameters: method as in PMID 30508794; details: MTT; read-out: IC50 against HCT116
[12] = parameters: method as in PMID 30508794; details: MTT; read-out: IC50 against PC3
PC3 (prostate) [13] = system: PC3 (prostate); parameters: method as in PMID 34684885; details: MTT; read-out: IC50 against PC3
HeLa (cervical) [14] = system: HeLa (cervical); parameters: method as in PMID 37935912; details: SRB; read-out: IC50 against HeLa
[15] = system: HEK293T (embryonic kidney); parameters: method as in doi:10.1080/10426507.2020.1723590; details: MTT; read-out: IC50 against HEK293T
A549 (lung) [16] = system: A549 (lung); parameters: method as in doi:10.1080/10426507.2020.1723590; details: MTT; read-out: IC50 against A549
p53 = system: p53; parameters: method as in doi:10.1080/10426507.2020.1723590
MDA-MB-231 “mutant p53” = system: MDA-MB-231 “mutant p53”; parameters: method as in PMID 37731691; details: MTT; read-out: IC50 against MDA-MB-231
MCF7 “wild p53” = system: MCF7 “wild p53”; parameters: method as in PMID 37731691; details: MTT; read-out: IC50 against MCF7
A549 (lung) [17] = system: A549 (lung); parameters: method as in PMID 29302672; details: at 10 μM, CCK-8
HCT116 (colon) [18] = system: HCT116 (colon); parameters: method as in PMID 29302672; details: at 10 μM, CCK-8
MCF7 (breast) [19] = system: MCF7 (breast); parameters: method as in PMID 29302672; details: at 10 μM, CCK-8
p53–MDM2 = system: p53–MDM2; parameters: method as in PMID 30458062
[20] = system: SK-OV-3 (ovarian cancer cell line with mutant p53); parameters: method as in PMID 30458062; details: read-out: IC50 against SK-OV-3
[21] = system: SJSA-1 (osteosarcoma cancer cell line with wild p53); parameters: method as in PMID 30458062; details: read-out: IC50 against SJSA-1
PC3 (prostate) [22] = system: PC3 (prostate); parameters: method as in PMID 36174446; details: MTT; read-out: IC50 against PC3
HCT-116 (colon) = system: HCT-116 (colon); parameters: method as in PMID 36174446; details: MTT; read-out: IC50 against HCT-116
MDA-MB-231 (breast) [23] = system: MDA-MB-231 (breast); parameters: method as in PMID 36174446; details: MTT; read-out: IC50 against MDA-MB-231
A549 (lung) [24] = system: A549 (lung); parameters: method as in PMID 36174446; details: MTT; read-out: IC50 against A549

O=C1Nc2ccc(Br)cc2C12N(c1ccccc1Cl)N=C(c1cccc(Cl)c1)N2c1cccc(Cl)c1 (stereo not drawn)
IC50 (MCF7): 9.5 ± 3.1 µM
IC50 [1]: 21.4 ± 7.4 µM
IC50 (HCT116 (p53^−/−)): 17.7 ± 1.3 µM
IC50 (HCT116 (p53^+/+)): 13.9 ± 1.1 µM
IC50 (MDA-MB-231 (breast) [2]): 7.6 ± 2.4 µM

O=C1Nc2ccc(Cl)cc2C12N(c1ccccc1)N=C(c1ccccc1)N2c1cccc(Cl)c1 (stereo not drawn)
IC50 (MCF7): 9.8 ± 1.5 µM
IC50 [1]: > 100 µM
IC50 (HCT116 (p53^−/−)): 17.9 ± 0.6 µM
IC50 (HCT116 (p53^+/+)): 16.3 ± 0.2 µM
IC50 (MDA-MB-231 (breast) [2]): 8.9 ± 1.9 µM

Cc1noc([C@@H]2[C@@H](c3ccccc3)[C@H](C(F)(F)F)N[C@@]23C(=O)Nc2cc(Br)ccc23)c1[N+](=O)[O-]
IC50 ([3]; absence of Fer-1): 0.17 µM
IC50 ([3]; presence of Fer-1): 13.7 µM

Cc1noc([C@@H]2[C@@H](c3ccccc3)[C@H](C(F)(F)F)N[C@@]23C(=O)Nc2cc(Cl)ccc23)c1[N+](=O)[O-]
IC50 ([3]; absence of Fer-1): 0.12 µM
IC50 ([3]; presence of Fer-1): 13.5 µM

CC(C)(C)OC(=O)N1CCC(c2nc(/C=C3\CCC4(C3=O)C3CCCCN3C3(C(=O)Nc5ccccc53)C4c3csc(C4CCN(C(=O)OC(C)(C)C)CC4)n3)cs2)CC1 (stereo not drawn)
IC50 (HeLa (cervical) [4]): 76.3 µM
IC50 (MCF7 (breast) [5]): 63.4 µM

CCCN1C(=O)[C@]2(N[C@@H](c3ccc(F)cc3)[C@@]3(Sc4c(C(=O)C(=O)OC)c5ccccc5n4C3=O)[C@H]2C(=O)OC)c2ccc(Cl)cc21
cell viability ([6]; MCF7, at 25 μg/mL): about 80%

CCCN1C(=O)[C@]2(N[C@@H](c3ccccc3)[C@@]3(Sc4c(C(=O)C(=O)OC)c5ccccc5n4C3=O)[C@H]2C(=O)OC)c2ccc(Cl)cc21
cell viability ([6]; MCF7, at 200 μg/mL): 80%

CN1C[C@H](c2cccc(F)c2)[C@@H](C(=O)C2CC[C@H]3[C@@H]4CC=C5C[C@@H](O)CC[C@]5(C)[C@H]4CC[C@]23C)[C@]12C(=O)Nc1ccccc12 (stereo partly drawn) [23 (R = 3-FC6H4)]
IC50 (MCF7 (breast) [7]): 4.6 ± 0.7 µM

O=C(c1nc2ccccc2[nH]1)[C@H]1[C@H](c2cccs2)C2CC3CCCCC3N2[C@]12C(=O)Nc1ccc(Cl)cc12 (stereo partly drawn) [39 (R = 2-thienyl)]
IC50 (MDA-MB-231): 3.8 ± 0.205 µM
IC50 (PC3): 4.314 ± 0.036 µM

O=C(/C=C/c1ccc(Cl)cc1Cl)[C@H]1[C@H](c2ccc(Cl)cc2Cl)C2CSCN2[C@]12C(=O)Nc1ccccc12 (stereo partly drawn) [49 (R = R^1 = 2,4-Cl2C6H3, R^2 = H)]
IC50 (PC-3 (prostate)): 1.8 ± 0.3 µM
IC50 (VERO-B (normal) cells): 5 ± 0.245 µM
IC50 (HCT116 (colon) [8]): 2 ± 0.6 µM
IC50 (HepG2 (liver) [9]): 0.85 ± 0.2 µM

O=C(c1c[nH]c2ccccc12)C1C(c2ccc(C(F)(F)F)cc2)C2CSCN2C12C(=O)Nc1ccccc12 (stereo not drawn) [51 (R = 4-F3CC6H4)]
IC50 (HepG2 (liver) [10]): 5.5 ± 0.2 µM
IC50 (HCT116 (colon) [11]): 7 ± 0.27 µM
IC50 [12]: 6 ± 0.23 µM

O=C1/C(=C/c2ccccc2)CCC[C@@]12[C@H](c1ccccc1)[C@H]1C[C@@H]3CCCC[C@@H]3N1[C@]21C(=O)Nc2cc(Cl)ccc21 [70 (R = Ph, R’ = 6-Cl)]
IC50 (PC3 (prostate) [13]): 3.7 ± 1 µM

O=C1c2ccccc2OC12C(c1ccc(Cl)cc1)C1CCCCN1C21C(=O)Nc2ccccc21 (stereo not drawn) [77 (R = H)]
IC50 (HeLa (cervical) [14]): 2.5 ± 0.3 µM

CN1C[C@H](c2ccccc2Cl)[C@]2(NC(=S)N(CC34CC5CC(CC(C5)C3)C4)C2=O)[C@]12C(=O)Nc1ccc(Br)cc12 [89 (R = Br, R’ = 2-ClC6H4)]
IC50 [15]: 7.63 ± 0.75 µM
IC50 (A549 (lung) [16]): 7.2 ± 1.85 µM

CN1C[C@H](c2ccc(Cl)cc2)[C@]2(NC(=S)N(CC34CC5CC(CC(C5)C3)C4)C2=O)[C@]12C(=O)Nc1ccc(Br)cc12 [89 (R = Br, R’ = 4-ClC6H4)]
p53 receptor activation (p53; A549, at 100 μM): 2.03 fold

CN1CC2(NC(=S)N(CC34CC5CC(CC(C5)C3)C4)C2=O)C2(C1)C(=O)Nc1ccc(Cl)cc12 (stereo not drawn) [92 (R = Cl, R’ = Me)]
IC50 [15]: 2.8 ± 0.3 µM
IC50 (A549 (lung) [16]): 5 ± 0.6 µM

CN1CC2(NC(=S)N(CC34CC5CC(CC(C5)C3)C4)C2=O)C2(C1)C(=O)Nc1ccccc12 (stereo not drawn) [92 (R = H, R’ = Me)]
p53 reporter activation (p53; A549, 1.56 to 100 μM compound concentrations): 1.06 to 4.39 folds

O=C1N(CCn2cc(CO)nn2)c2cc(Br)ccc2[C@]12[C@@H](c1ccccc1)C(c1ccccc1)=NN2c1ccccc1 [101 (X = (CH2)2)]
IC50 (MDA-MB-231 “mutant p53”): 9.3 µM
IC50 (MCF7 “wild p53”): 11.9 µM

O=C(c1ccc(Br)cc1)[C@@H]1S[C@@]2(C(=O)Nc3cccc(Br)c32)[C@@H](c2ccccc2)C[C@@H]1O [146 (R^1/R^2/R^3 = 4-Br, 4-BrC6H4, Ph)]
% inhibition, A549 (A549 (lung) [17]): 86.9%
% inhibition, HCT116 (HCT116 (colon) [18]): 81.7%
% inhibition, MCF7 (MCF7 (breast) [19]): 50.9%

O=C(O)c1ccc([C@H]2C[C@H]3[C@@H](N2)[C@H](c2cccc(Cl)c2F)C2(C(=O)Nc4cc(Cl)ccc42)N3CC2CC2)cc1 (stereo partly drawn) [compound 52, reference compound]
IC50 (p53–MDM2): 0.004 µM
IC50 [20]: > 25 µM
IC50 [21]: 0.471 µM

O=C(O)c1ccc(N2CC3C(C2=O)C(c2cccc(Cl)c2F)C2(C(=O)Nc4cc(Cl)ccc42)N3CC2CC2)cc1 (stereo not drawn) [compound 62]
IC50 (p53–MDM2): 0.004 µM
IC50 [20]: > 25 µM
IC50 [21]: 0.161 µM

O=C(O)c1ccc(N2CCC3C(C2=O)C(c2cccc(Cl)c2F)C2(C(=O)Nc4cc(Cl)ccc42)N3CC2CC2)cc1 (stereo not drawn) [compound 63]
IC50 (p53–MDM2): 0.004 µM
IC50 [20]: > 25 µM
IC50 [21]: 0.547 µM

CC(=O)N1C(=O)[C@@]2(S[C@@H](C(=O)c3ccccc3)[C@@H](O)C[C@@H]2c2ccccc2)c2c(Br)cccc21 [compound 147]
% inhibition, A549 (A549 (lung) [17]): 70.3%
% inhibition, HCT116 (HCT116 (colon) [18]): 56.4%
% inhibition, MCF7 (MCF7 (breast) [19]): 77.6%

COc1cccc2c1C(=O)c1c(O)c3c(c(O)c1C2=O)C[C@@](O)(C(=O)CO)C[C@@H]3O[C@H]1C[C@H](N)[C@H](O)[C@H](C)O1 [doxorubicin, reference compound]
IC50 (HeLa (cervical) [4]): 65.3 µM
IC50 (PC3 (prostate) [22]): 8.8 ± 0.3 µM
IC50 (HCT-116 (colon)): 13.1 ± 2.1 µM
IC50 (MDA-MB-231 (breast) [23]): 5.82 ± 0.4 µM
IC50 (A549 (lung) [24]): 11.5 ± 0.8 µM
IC50 (MCF7 (breast) [5]): 59.4 µM
IC50 (PC3 (prostate) [13]): 1.9 ± 0.4 µM
